# The source made the active and inactive calls. No cut-off for these calls is given here.
# Assays:
# [1] = Selectivity ratio, ratio of IC50 for antiproliferative activity against human HT-29 cells to IC50 for antiproliferative activity against human MCF7 cells expressing CYP1A1; format: functional
# MCF7 [2] = test: Antiproliferative activity against human MCF7 cells expressing CYP1A1 assessed as cell growth inhibition incubated for 48 hrs by sulforhodamine B assay; format: functional, cell-based; details: MCF7, 48 h
# HT-29 = test: Antiproliferative activity against human HT-29 cells assessed as cell growth inhibition incubated for 48 hrs by sulforhodamine B assay; format: functional, cell-based; details: HT-29, 48 h
# [3] = Selectivity ratio, ratio of IC50 for antiproliferative activity against human M21 cells to IC50 for antiproliferative activity against human MCF7 cells expressing CYP1A1; format: functional
# HT-1080 [4] = test: Antiproliferative activity against human HT-1080 cells transfected with empty vector assessed as cell growth inhibition incubated for 48 hrs by sulforhodamine B assay; format: functional, cell-based; details: HT-1080, 48 h
# MCF7 [5] = test: Induction of cell cycle arrest in human MCF7 cells expressing CYP1A1 assessed as accumulation of cells at S phase at 15 nM incubated for 48 hrs by DAPI staining based flow cytometric analysis (reference value: 11+/-1 %); format: functional
# M21 = test: Antiproliferative activity against human M21 cells assessed as cell growth inhibition incubated for 48 hrs by sulforhodamine B assay; format: functional, cell-based; details: M21, 48 h
# [6] = Selectivity ratio, ratio of IC50 for antiproliferative activity against human HT-1080 cells transfected with empty vector to IC50 for antiproliferative activity against human HT-1080 cells expressing CYP1A1; format: functional
# HT-1080 [7] = test: Antiproliferative activity against human HT-1080 cells expressing CYP1A1 assessed as cell growth inhibition incubated for 48 hrs by sulforhodamine B assay; format: functional, cell-based; details: HT-1080, 48 h
# HT-1080 [8] = test: Antiproliferative activity against human HT-1080 cells assessed as cell growth inhibition incubated for 48 hrs by sulforhodamine B assay; format: functional, cell-based; details: HT-1080, 48 h
# MCF7 [9] = test: Induction of cell cycle arrest in human MCF7 cells expressing CYP1A1 assessed as accumulation of cells at G2/M phase at 15 nM incubated for 48 hrs by DAPI staining based flow cytometric analysis (reference value: 16+/-2 %); format: functional
# [10] = Selectivity ratio, ratio of IC50 for antiproliferative activity against human HT-1080 cells to IC50 for antiproliferative activity against human HT-1080 cells expressing CYP1A1; format: functional
# MCF7 [11] = test: Induction of cell cycle arrest in human MCF7 cells expressing CYP1A1 assessed as accumulation of cells at G0/G1 phase at 15 nM incubated for 48 hrs by DAPI staining based flow cytometric analysis (reference value: 74+/-2 %); format: functional
# [12] = Selectivity ratio, ratio of IC50 for antiproliferative activity against ER/PR/HER2-negative human MDA-MB-231 cells to IC50 for antiproliferative activity against […] human MCF7 cells; format: functional
# HT-1080 [13] = test: Antitumor activity against human HT-1080 cells transfected with empty vector xenografted in chick embryo assessed as reduction in tumor wet weight at 1 ug, iv incubated for 17 days by CAM assay; format: functional; set-up: scale not given: the % may be the effect or the level left; details: dose 1 µg, time 17 day
# [14] = Stability in human liver microsomes assessed as half life incubated for 60 mins by HPLC analysis; format: ADME, Microsome
# [15] = Selectivity ratio, ratio of IC50 for antiproliferative activity against ER/PR/HER2-negative human MDA-MB-231 cells to IC50 for antiproliferative activity against ER/PR/HER2-negative human MDA-MB-468 cells; format: functional
# MCF7 [16] = test: Induction of cell cycle arrest in human MCF7 cells expressing CYP1A1 assessed as accumulation of cells at G2/M phase at 1250 nM incubated for 48 hrs by DAPI staining based flow cytometric analysis (reference value: 16+/-2 %); format: functional
# [17] = Toxicity in chick embryo xenografted with human […] cells transfected with empty vector assessed as mortality at 1 ug, iv incubated for 17 days; format: organism-based, Gallus gallus; details: chicken, in vivo, 408 h, dose 1 µg, time 17 day
# MDA-MB-468 = test: Antiproliferative activity against ER/PR/HER2-negative human MDA-MB-468 cells assessed as cell growth inhibition incubated for 72 hrs by sulforhodamine B assay; format: functional, cell-based; details: MDA-MB-468, 72 h
# MCF7 [18] = test: Induction of cell cycle arrest in human MCF7 cells expressing CYP1A1 assessed as accumulation of cells at S phase at 1250 nM incubated for 48 hrs by DAPI staining based flow cytometric analysis (reference value: 11+/-1 %); format: functional
# [19] = Stability in rat liver microsomes assessed as half life incubated for 60 mins by HPLC analysis; format: ADME, Microsome
# MDA-MB-231 = test: Antiproliferative activity against ER/PR/HER2-negative human MDA-MB-231 cells assessed as cell growth inhibition incubated for 72 hrs by sulforhodamine B assay; format: functional, cell-based; details: MDA-MB-231, 72 h
# MCF7 [20] = test: Induction of cell cycle arrest in human MCF7 cells expressing CYP1A1 assessed as accumulation of cells at G0/G1 phase at 1250 nM incubated for 48 hrs by DAPI staining based flow cytometric analysis (reference value: 74+/-2 %); format: functional
# [21] = Selectivity ratio, ratio of IC50 for antiproliferative activity against ER/PR/HER2-negative human MDA-MB-231 cells to IC50 for antiproliferative activity against ER/PR-negative HER2-positive human SK-BR-3 cells; format: functional
# [22] = Toxicity in chick embryo xenografted with human […] cells expressing CYP1A1 assessed as mortality at 1 ug, iv incubated for 17 days; format: organism-based, Gallus gallus; details: chicken, in vivo, 408 h, dose 1 µg, time 17 day
# Tubulin (Homo sapiens) = Tubulin (Homo sapiens) (UniProt P68371+Q9H4B7+P0DPH7+P68366+Q13509+Q71U36+P04350+Q3ZCM7+P07437+P68363+Q9BQE3+Q6PEY2+Q13885+Q9BVA1+Q9BUF5); test: Disruption of microtubules in human MCF7 cells expressing CYP1A1 assessed as cytoskeleton disruption at 1250 nM measured after 48 hrs by DAPI staining based fluorescence microscopic analysis; format: cell-based
# HT-1080 [23] = test: Antitumor activity against human HT-1080 cells expressing CYP1A1 xenografted in chick embryo assessed as reduction in tumor wet weight at 1 ug, iv incubated for 17 days by CAM assay; format: functional; set-up: scale not given: the % may be the effect or the level left; details: dose 1 µg, time 17 day
# [24] = Stability in mouse liver microsomes assessed as half life incubated for 60 mins by HPLC analysis; format: ADME, Microsome
# HT-1080 [25] = test: Antitumor activity against human HT-1080 cells xenografted in chick embryo assessed as reduction in tumor wet weight at 1 ug, iv incubated for 17 days by CAM assay; format: functional; set-up: scale not given: the % may be the effect or the level left; details: dose 1 µg, time 17 day
# [26] = Toxicity in chick embryo xenografted with human […] cells assessed as mortality at 1 ug, iv incubated for 17 days; format: organism-based, Gallus gallus; details: chicken, in vivo, 408 h, dose 1 µg, time 17 day
# T47D = test: Antiproliferative activity against ER/PR-positive HER2-negative human T47D cells assessed as cell growth inhibition incubated for 72 hrs by sulforhodamine B assay; format: functional, cell-based
# Cytochrome P450 1A1 [27] = molecular target: T1, Cytochrome P450 1A1 (Homo sapiens, UniProt P04798); test: Prodrug conversion assessed as human CYP1A1-mediated CEU-699 formation incubated for 15 mins in presence of NADPH by HPLC analysis; format: ADME; details: recombinant enzyme, 0.25 h
# T1 sequence (P04798 whole entry): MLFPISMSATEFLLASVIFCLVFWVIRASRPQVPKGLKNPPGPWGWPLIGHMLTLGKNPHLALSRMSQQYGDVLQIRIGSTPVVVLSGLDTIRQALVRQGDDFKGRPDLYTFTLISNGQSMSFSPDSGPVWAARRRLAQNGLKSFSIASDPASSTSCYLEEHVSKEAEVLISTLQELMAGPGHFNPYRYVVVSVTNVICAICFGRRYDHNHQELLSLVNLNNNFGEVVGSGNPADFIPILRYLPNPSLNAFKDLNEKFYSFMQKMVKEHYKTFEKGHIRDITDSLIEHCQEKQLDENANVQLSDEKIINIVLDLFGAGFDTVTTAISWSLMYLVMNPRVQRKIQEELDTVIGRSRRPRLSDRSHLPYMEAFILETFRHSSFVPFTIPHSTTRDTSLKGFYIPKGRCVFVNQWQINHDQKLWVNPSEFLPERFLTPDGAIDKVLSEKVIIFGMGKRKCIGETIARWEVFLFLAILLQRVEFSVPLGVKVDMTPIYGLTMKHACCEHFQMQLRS
# MCF7 [28] = test: Antiproliferative activity against […] human MCF7 cells assessed as cell growth inhibition incubated for 72 hrs by sulforhodamine B assay; format: functional, cell-based; details: MCF7, 72 h
# SK-BR-3 = test: Antiproliferative activity against ER/PR-negative HER2-positive human SK-BR-3 cells assessed as cell growth inhibition incubated for 72 hrs by sulforhodamine B assay; format: functional, cell-based; details: SK-BR-3, 72 h
# [29] = Selectivity ratio, ratio of IC50 for antiproliferative activity against ER/PR/HER2-negative human MDA-MB-231 cells to IC50 for antiproliferative activity against ER/PR-positive HER2-negative human T47D cells; format: functional
# [30] = Stability in rat liver microsomes assessed as intrinsic clearance incubated for 60 mins by HPLC analysis; format: ADME, Microsome; details: read-out: CLH
# Cytochrome P450 1A1 [31] = molecular target: T1, Cytochrome P450 1A1; test: Binding affinity to human CYP1A1 assessed as inhibition of conversion of 7-ethoicyresorufin into fluorescent resorufin by measuring inhibition constant preincubated for 5 mins followed by […] addition measured every minute for 15 mins by EROD assay; format: ADME
# [32] = Stability in mouse liver microsomes assessed as intrinsic clearance incubated for 60 mins by HPLC analysis; format: ADME, Microsome; details: read-out: CLH
# [33] = Stability in human liver microsomes assessed as intrinsic clearance incubated for 60 mins by HPLC analysis; format: ADME, Microsome; details: read-out: CLH
structure (smiles),measurement,setting,value
COc1ccc(/C=C\c2cc(OC)c(OC)c(OC)c2)cc1O [COMBRETASTATIN A4],Ratio IC50,[1],0.66
same,IC50,MCF7 [2],9 nM
same,IC50,HT-29,6 nM
same,Ratio IC50,[3],0.044
same,IC50,HT-1080 [4],1.3 nM
same,Activity,MCF7 [5],8%
same,IC50,M21,0.4 nM
same,Ratio IC50,[6],0.62
same,IC50,HT-1080 [7],2.1 nM
same,IC50,HT-1080 [8],6 nM
same,Activity,MCF7 [9],72%
same,Ratio IC50,[10],2.9
same,Activity,MCF7 [11],20.1%
CCCCCN1CCN(c2ccc(S(=O)(=O)Oc3cc(OC)cc(OC)c3)cc2)C1=O,Ratio IC50,[12],>290
same,Activity,HT-1080 [13],87%
same,half-life,[14],1.17 h
same,Ratio IC50,[15],>60
same,Activity,MCF7 [16],57%
same,Ratio IC50,[1],>21
same,IC50,MCF7 [2],600 nM
same,Activity,[17],Non-Toxic
same,IC50,MDA-MB-468,210 nM
same,Activity,MCF7 [18],11%
same,half-life,[19],1.78 h
same,IC50,HT-29,> 12500 nM
same,IC50,MDA-MB-231,> 12500 nM
same,Activity,MCF7 [20],32%
same,Ratio IC50,[21],>160
same,Activity,[22],Non-Toxic
same,Ratio IC50,[3],>21
same,Activity,Tubulin (Homo sapiens),Active
same,Activity,HT-1080 [23],71%
same,half-life,[24],0.733 h
same,Activity,HT-1080 [25],86%
same,Activity,[26],Non-Toxic
same,IC50,T47D,1100 nM
same,IC50,HT-1080 [4],8800 nM
same,IC50,M21,> 12500 nM
same,Drug metabolism,Cytochrome P450 1A1 [27],Metabolite_Detected
same,IC50,MCF7 [28],43 nM
same,Ratio IC50,[6],18
same,IC50,SK-BR-3,79 nM
same,IC50,HT-1080 [7],500 nM
same,Ratio IC50,[29],>11
same,microsomal CLint,[30],13 µL/min/mg
same,Ki,Cytochrome P450 1A1 [31],230 nM
same,IC50,HT-1080 [8],6800 nM
same,Ratio IC50,[10],14
same,microsomal CLint,[32],32 µL/min/mg
same,microsomal CLint,[33],20 µL/min/mg
